From paper PMC8472562, “Oral Peptide Vaccine against Hookworm Infection: Correlation of Antibody Titers with Protective Efficacy” (Vaccines, 2021)
Entries after “also recorded” stand apart in the source; their conditions may differ. Bridge positions count the residues as written; N and C are the ends. I, II: the chains in the order shown.

Key:
p3 epitope [1] = type: in vivo, BALB/c mice; conditions: oral gavage 4 × 100 µg, two-week intervals, n = 8/group; ELISA; compared to PBS group or between groups
[2] = Particle size distribution by dynamic light scattering and TEM; type: physicochemical; conditions: 0.2 mg/mL in PBS, 25 °C, angle 173°
Method: Particle size distribution was evaluated by preparing a 0.2 mg/mL solution of each pure compound in PBS and measured using dynamic light scattering (DLS; Zetasizer Nano ZP) at 25 °C and an angle of 173°.
Compounds were evaluated by transmission electron microscopy using a JEM-1010 microscope (JEOL LTD, Tokyo, Japan) at 100 kV. The images were analyzed using AnalySIS® software (Megaview III, Munster, Germany).

bovine trypsin [3] = test system: T1, bovine trypsin; assay: In vitro stability against proteolysis by bovine trypsin; type: in vitro ADME; conditions: bovine trypsin 1000 U solution, 1 mM CaCl2 in PBS, 37 °C with shaking, analytical HPLC
T1 construct: purchased Sigma-Aldrich
Method: (§1) Enzyme 1000 U solution was prepared from bovine trypsin (10,000 U/mg, Sigma-Aldrich, Castle Hill, NSW, Australia) with 1 mM CaCl2 in 1 mL PBS, as reported previously. After preparation, 100 µL of enzyme solution was added to 400 µL of peptide solution (1.25 mg/mL) in PBS and incubated at 37 °C with shaking. To inhibit enzyme activity, 40 µL of TFA and acetonitrile mixture (1:2) was added to 60 µL aliquots of the mixture at each interval. The solution was analyzed by analytical HPLC with a calibration curve employing the compound’s peak at its characteristic retention time to determine intact compound concentration.

mutant APR-1M74 = assay: Serum anti-APR-1 IgG ELISA after oral immunization; type: in vivo, BALB/c mice; conditions: oral gavage 4 × 100 µg, two-week intervals, n = 8/group
[4] = Secondary structure by ATR-FTIR; type: physicochemical; conditions: 2 mg/mL in PBS, 25 °C, triplicate spectra, second derivative
Method: The compounds’ secondary structures were evaluated according to the methodology of Yang et al.. Solutions of each compound in PBS (2 mg/mL) were prepared and placed on the diamond-attenuated total reflectance accessory of the ATR-FTIR, and absorbance spectra were collected from 500 and 4000 cm^−1, in triplicate, at 25 °C and 4 cm^−1 resolution. The first and second derivative of the absorbance spectra were generated and analyzed using Originpro 2020 software. The second derivative secondary structure component-peak assignment was also detected and quantified using Originpro 2020 software.

p3 epitope [5] = type: in vivo, BALB/c mice; conditions: oral gavage 4 × 100 µg; ELISA
[6] = test system: Nippostrongylus brasiliensis; type: in vivo, BALB/c mice; conditions: oral 4 × 100 µg; 750 L3 larvae s.c.; 7 days post-infection; one-way ANOVA and Mann Whitney U-test against negative control
bovine trypsin [7] = molecular target: T2, bovine trypsin (Bos taurus, UniProt P00760); assay: In vitro stability against proteolysis by bovine trypsin; type: in vitro ADME; conditions: bovine trypsin in PBS, 37 °C
T2 construct: purchased Sigma-Aldrich
T2 sequence (P00760 24-246): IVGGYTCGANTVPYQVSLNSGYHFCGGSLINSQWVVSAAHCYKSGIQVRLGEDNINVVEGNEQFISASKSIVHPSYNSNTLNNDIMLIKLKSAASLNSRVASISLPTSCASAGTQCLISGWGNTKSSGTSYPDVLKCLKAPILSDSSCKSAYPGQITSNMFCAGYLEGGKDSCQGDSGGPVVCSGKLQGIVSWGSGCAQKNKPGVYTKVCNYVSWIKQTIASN
Method: as §1

Q: With “Ac-LLLLLLLLLLTSLIAGPKAQVEAIQKYIGAELKKLIPNASLIENCTKAELSKKKK-NH2 (N-terminus and C-terminus assumed) [LL10]” as the substance, how does the “serum p3-IgG titers” value (p3 epitope [1]) read?
A: highest; also recorded: significantly higher

Q: What about the “polydispersity index (PDI)” value ([2]; DLS) of the same substance?
A: 0.36 ± 0.1

Q: And the nanoparticle size ([2]; self-assembled, electron microscopy and DLS, LCP, BL10, LL10 also formed aggregates)?
A: 22 nm

Q: And the metabolised at 0.5 h, 1 mg/mL (bovine trypsin [3]; 100 µL enzyme + 400 µL peptide 1.25 mg/mL, 30 min, read-out: degradation after 30 min of incubation with trypsin)?
A: 25%

Q: What about the remaining at 1 h, 1 mg/mL (bovine trypsin [3]; peptide 1.25 mg/mL, 60 min, read-out: conjugate remained intact after 60 min) of the same substance?
A: 15%

Q: What about the “serum anti-APR-1 IgG titers” value (mutant APR-1M74) of the same substance?
A: highest

Q: And the β-sheet contribution [4]?
A: 6%

Q: And the “mucosal antibody responses (saliva and fecal extracts, IgA and IgG)” value (p3 epitope [5])?
A: detectable

Q: And the “parasite and egg numbers after challenge infection, in words” value [6]?
A: highest significant reduction in worm burden; also recorded: significantly reduced

Q: For “Ac-TSLIAGPKAQVEAIQKYIGAELKKLIPNASLIENCTKAELSKKKK-NH2 [p3-P25]”, which “time to almost complete degradation by trypsin” value (bovine trypsin [7]; analytical HPLC) is on record?
A: less than 30 min

Q: Which “stability against trypsin degradation, comparison in words” value (bovine trypsin [7]; one-way ANOVA with Tukey's test) does the source give for “I: Ac-TSLIAGPKAQVEAIQKYIGAELKKLIPNASLIENCTKAELSKKKK-NH2 / II: Ac-LLLLLLLLLL (amide I:23-II:C) [BL10]” here?
A: significantly slower than p3-P25
